Measured values from PubChem BioAssay AID1918993 (Molecular Pharmacology Branch, DTP, NCI, 2023).
“And” between values parts separate entries of the source, which are not always exact repeats. Equal values may be shown once.

Tested on: 233499-124-R-J3-PDC complex spheroid growth
Assay: Anticancer human tumor 233499-124-R-J3-PDC patient-derived colon adenocarcinoma cell line growth inhibition [AhR]
Conditions: for viability, T/C: stronger effect = lower value
Outline: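 Agents were dosed in half-log steps down from roughly clinical Cmax, or from 10 microM where Cmax was unknown, alone and with AhR antagonists. Read-out: percent test/control growth of tumor spheroids containing HUVEC and MSC stromal cells.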

[1] = curve of first compound, second compound 0.1 µM
[2] = curve of first compound, second compound 0.316 µM
[3] = curve of first compound, second compound 1 µM
[4] = curve of first compound, second compound 3.16 µM
[5] = curve of first compound, second compound 10 µM
[6] = second compound 0.1 µM, first compound 0.0316 µM
[7] = second compound 0.1 µM, first compound 0.1 µM
[8] = second compound 0.1 µM, first compound 0.316 µM
[9] = second compound 0.1 µM, first compound 1 µM
[10] = second compound 0.1 µM, first compound 3.16 µM
[11] = second compound 0.1 µM, first compound 10 µM
[12] = second compound 0.316 µM, first compound 0.0316 µM
[13] = second compound 0.316 µM, first compound 0.1 µM
[14] = second compound 0.316 µM, first compound 0.316 µM
[15] = second compound 0.316 µM, first compound 1 µM
[16] = second compound 0.316 µM, first compound 3.16 µM
[17] = second compound 0.316 µM, first compound 10 µM
[18] = second compound 1 µM, first compound 0.0316 µM
[19] = second compound 1 µM, first compound 0.1 µM
[20] = second compound 1 µM, first compound 0.316 µM
[21] = second compound 1 µM, first compound 1 µM
[22] = second compound 1 µM, first compound 3.16 µM
[23] = second compound 1 µM, first compound 10 µM
[24] = second compound 3.16 µM, first compound 0.0316 µM
[25] = second compound 3.16 µM, first compound 0.1 µM
[26] = second compound 3.16 µM, first compound 0.316 µM
[27] = second compound 3.16 µM, first compound 1 µM
[28] = second compound 3.16 µM, first compound 3.16 µM
[29] = second compound 3.16 µM, first compound 10 µM
[30] = second compound 10 µM, first compound 0.0316 µM
[31] = second compound 10 µM, first compound 0.1 µM
[32] = second compound 10 µM, first compound 0.316 µM
[33] = second compound 10 µM, first compound 1 µM
[34] = second compound 10 µM, first compound 3.16 µM
[35] = second compound 10 µM, first compound 10 µM
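Note: spheroids exposed to agents for seven days before reading.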

| Structure (SMILES) | IC50 [1] | IC50 [2] | IC50 [3] | IC50 [4] | IC50 [5] | viability, T/C [6] | viability, T/C [7] | viability, T/C [8] | viability, T/C [9] | viability, T/C [10] | viability, T/C [11] | viability, T/C [12] | viability, T/C [13] | viability, T/C [14] | viability, T/C [15] | viability, T/C [16] | viability, T/C [17] | viability, T/C [18] | viability, T/C [19] | viability, T/C [20] | further results |
| --- | --- | --- | --- | --- | --- | --- | --- | --- | --- | --- | --- | --- | --- | --- | --- | --- | --- | --- | --- | --- | --- |
| CC1(C)CCC(CN2CCN(c3ccc(C(=O)NS(=O)(=O)c4ccc(NCC5CCOCC5)c([N+](=O)[O-])c4)c(Oc4cnc5[nH]ccc5c4)c3)CC2)=C(c2ccc(Cl)cc2)C1 + Cc1ccccc1N=Nc1ccc(NC(=O)c2ccnn2C)c(C)c1 | > 10 µM | 8.7 µM | 9.24 µM | 7.49 µM | 7.21 µM | 94.8% | 116% | 102% | 108% | 117% | 51.5% | 111% | 110% | 97% | 112% | 118% | 41.8% | 104% | 106% | 97.6% | viability, T/C [21]: 122%; viability, T/C [22]: 122%; viability, T/C [23]: 45.5%; viability, T/C [24]: 102%; viability, T/C [25]: 97.7%; viability, T/C [26]: 104%; viability, T/C [27]: 99.4%; viability, T/C [28]: 113%; viability, T/C [29]: 32.2%; viability, T/C [30]: 121%; viability, T/C [31]: 99.3%; viability, T/C [32]: 112%; viability, T/C [33]: 107%; viability, T/C [34]: 109%; viability, T/C [35]: 26.6% |
| COc1ccc([C@@H](O)c2cc(-c3ncnc4cc(N5CCOCC5)ccc34)c(F)cc2Cl)nn1 | – | – | – | – | – | – | – | – | – | – | – | – | – | – | – | – | – | – | – | – | viability, T/C (compound 0.0316 µM): 99.4% and 94% and 95.8%; viability, T/C (compound 0.1 µM): 95.7% and 89% and 102%; viability, T/C (compound 0.316 µM): 94.3% and 102% and 98.5%; viability, T/C (compound 1 µM): 99.9% and 87% and 104%; viability, T/C (compound 3.16 µM): 92.7% and 89.7% and 82.3%; viability, T/C (compound 10 µM): 98.3% and 91% and 81.9%; IC50 (curve of compound): > 10 µM |
| NS(=O)(=O)OCC1CC(n2ccc3c(NC4CCc5ccccc54)ncnc32)CC1O (stereo not given) + CC(CO)NC(=O)c1cc(-c2ccc(Cl)cc2)nn(-c2cnn(C)c2)c1=O | 0.229 µM | 0.196 µM | 0.214 µM | 0.194 µM | 0.112 µM | 100% | 81.9% | 38.2% | 6.95% | 3.58% | 2.89% | 101% | 76.1% | 32.2% | 4.48% | 2.85% | 1.79% | 97.3% | 83.6% | 32.7% | viability, T/C [21]: 7.56%; viability, T/C [22]: 2.89%; viability, T/C [23]: 2.21%; viability, T/C [24]: 97.8%; viability, T/C [25]: 85.1%; viability, T/C [26]: 23.9%; viability, T/C [27]: 7.17%; viability, T/C [28]: 4.49%; viability, T/C [29]: 4.6%; viability, T/C [30]: 89.6%; viability, T/C [31]: 54%; viability, T/C [32]: 12.6%; viability, T/C [33]: 4.19%; viability, T/C [34]: 4.04%; viability, T/C [35]: 2.93% |
| CC(C)c1c(-c2ccccc2)nc2c(C#N)c[nH]n2c1=O + Cc1cncc(-c2nc(NCCc3c[nH]c4ccccc34)c3ncn(C(C)C)c3n2)c1 | > 10 µM | > 10 µM | > 10 µM | > 10 µM | < 0.0316 µM | 88.8% | 100% | 96.5% | 108% | 101% | 108% | 89.9% | 88.9% | 87.4% | 86.3% | 86.2% | 85.2% | 84.5% | 79.2% | 71.5% | viability, T/C [21]: 73.8%; viability, T/C [22]: 79.2%; viability, T/C [23]: 84%; viability, T/C [24]: 72.5%; viability, T/C [25]: 86.5%; viability, T/C [26]: 74.6%; viability, T/C [27]: 60.9%; viability, T/C [28]: 73.3%; viability, T/C [29]: 77.2%; viability, T/C [30]: 1.69%; viability, T/C [31]: 2.34%; viability, T/C [32]: 4.08%; viability, T/C [33]: 2.26%; viability, T/C [34]: 2.36%; viability, T/C [35]: 2.85% |
| COc1cccc2c1C(=O)c1c(O)c3c(c(O)c1C2=O)CC(O)(C(=O)CO)CC3OC1CC(N)C(O)C(C)O1 (stereo not given) + Cc1cncc(-c2nc(NCCc3c[nH]c4ccccc34)c3ncn(C(C)C)c3n2)c1 | 8.48 µM | > 10 µM | 2.77 µM | 1.35 µM | < 0.0316 µM | 102% | 84.1% | 80.3% | 83.2% | 49.3% | 51.2% | 73.8% | 90.8% | 79.8% | 78% | 61.3% | 50.6% | 87.4% | 72.8% | 76.9% | viability, T/C [21]: 71%; viability, T/C [22]: 46.9%; viability, T/C [23]: 32.5%; viability, T/C [24]: 81.8%; viability, T/C [25]: 87.1%; viability, T/C [26]: 77.5%; viability, T/C [27]: 60.8%; viability, T/C [28]: 21.3%; viability, T/C [29]: 4.5%; viability, T/C [30]: 7.64%; viability, T/C [31]: 13.7%; viability, T/C [32]: 41%; viability, T/C [33]: 13.4%; viability, T/C [34]: 14.4%; viability, T/C [35]: 0.5% |
| Cc1ccccc1N=Nc1ccc(NC(=O)c2ccnn2C)c(C)c1 | – | – | – | – | – | – | – | – | – | – | – | – | – | – | – | – | – | – | – | – | viability, T/C (compound 0.1 µM): 102% [middle of 20 runs]; viability, T/C (compound 10 µM): 97.8% [middle of 20 runs]; IC50 (compound alone, run of 07/26/2022): > 10 µM |
